According to ChEMBL document CHEMBL3792276, “Design and synthesis of diamide-coupled benzophenones as potential anticancer agents” (Eur J Med Chem, 2016):
Calls of active or inactive are those of the source. The calls are words filed in the database; no cut-off is given here.

Columns and labels:
[1] = tested on: A549; assay: Cytotoxicity against human A549 cells after 48 hrs by MTT assay; format: functional, cell-based
[2] = tested on: DLA; assay: (§1) Cytotoxicity against mouse DLA cells after 48 hrs by MTT assay; format: functional, cell-based
[3] = tested on: A549; assay: Cytotoxicity against human A549 cells after 48 hrs by LDH leak assay; format: functional, cell-based
[4] = tested on: MCF7; assay: Cytotoxicity against human MCF7 cells after 48 hrs by MTT assay; format: functional, cell-based
[5] = tested on: MCF7; assay: Cytotoxicity against human MCF7 cells after 48 hrs by LDH leak assay; format: functional, cell-based
[6] = tested on: DLA; assay: (§2) Cytotoxicity against mouse DLA cells after 48 hrs by trypan blue assay; format: functional, cell-based
[7] = tested on: MCF7; assay: Cytotoxicity against human MCF7 cells after 48 hrs by trypan blue assay; format: functional, cell-based
[8] = tested on: DLA; assay: (§3) Cytotoxicity against mouse DLA cells after 48 hrs by LDH leak assay; format: functional, cell-based
[9] = tested on: A549; assay: Cytotoxicity against human A549 cells after 48 hrs by trypan blue assay; format: functional, cell-based
[10] = species: Mus musculus; assay: Antiangiogenic activity against Swiss albino mouse allografted with mouse DLA cells assessed as decrease in peritoneal angiogenesis measured as […]; format: functional
[11] = Antitumor activity against mouse DLA cells allografted in Swiss albino mouse assessed as induction of tumor regression at 75 mg/kg, ip administered as 3 doses on alternative days post 4 days of tumor implantation; format: functional
[12] = tested on: Mus musculus; assay: Decrease in cell count Swiss albino mouse allografted with mouse DLA cells at 75 mg/kg, ip administered as 3 doses on alternative days post 4 days of tumor implantation; format: functional, organism-based
[13] = Antitumor activity against mouse DLA cells allografted in Swiss mouse assessed as increase in animal survival time at 75 mg/kg, ip administered as 3 doses on alternative days post 4 days of tumor implantation; format: functional
[14] = Antitumor activity against mouse DLA cells allografted in Swiss albino mouse assessed as inhibition of tumor growth at 75 mg/kg, ip administered as 3 doses on alternative days post 4 days of tumor implantation measured after final dose of drug challenge; format: functional; conditions: 96 h
[15] = as §1; format: functional, cell-based
[16] = tested on: Mus musculus; assay: Decrease in ascites fluid secretion in Swiss albino mouse allografted with mouse DLA cells at 75 mg/kg, ip administered as 3 doses on alternative days post 4 days of tumor implantation; format: functional, organism-based
[17] = tested on: Chorioallantoic membrane; assay: Antiangiogenic activity in chicken chorioallantoic membrane assessed as inhibition of rVEGF-induced neovascularization measured upto 12 days; format: functional; conditions: Gallus gallus
[18] = as §2; format: functional, cell-based
[19] = as §3; format: functional, cell-based

Structure (SMILES)	Activity [1]	Activity [2]	Activity [3]	Activity [4]	Activity [5]	Activity [6]	Activity [7]	Activity [8]	Activity [9]	other results
Cc1cc(C(=O)c2ccccc2)ccc1OCC(=O)Nc1ccccc1NC(=O)COc1ccc(C(=O)c2ccccc2)cc1C	inactive	inactive	inactive	inactive	inactive	inactive	inactive	inactive	inactive	–
Cc1cc(C(=O)c2ccccc2)c(C)cc1OCC(=O)Nc1ccccc1NC(=O)COc1cc(C)c(C(=O)c2ccccc2)cc1C	inactive	inactive	inactive	inactive	inactive	inactive	inactive	inactive	inactive	–
Cc1cc(C(=O)c2ccccc2)ccc1OCC(=O)Nc1ccccc1NC(=O)COc1c(F)cc(C(=O)c2ccc(Cl)cc2)cc1Cl	inactive	inactive	inactive	inactive	inactive	inactive	inactive	inactive	inactive	–
Cc1cc(C(=O)c2ccccc2)ccc1OCC(=O)Nc1ccccc1NC(=O)COc1ccc(C(=O)c2ccc(Br)cc2)cc1C	inactive	inactive	inactive	inactive	inactive	inactive	inactive	inactive	inactive	–
Cc1cc(C(=O)c2ccc(Br)cc2)ccc1OCC(=O)Nc1ccccc1NC(=O)COc1ccc(C(=O)c2ccccc2C)cc1C	–	–	–	–	–	–	–	–	–	inhibition (INH) [10]: >50%; fold change (FC) [11]: 2.5; IC50 ([1]; A549, 48 h): 20 µM; inhibition [12]: Active; MST [13]: 37 days; inhibition in vivo at 75 mg/kg [14]: 80%; IC50 [15]: 23 µM; IC50 ([3]; A549, 48 h): 20 µM; inhibition [16]: Active; inhibition [17]: Active; IC50 ([4]; MCF7, 48 h): 23 µM; IC50 ([5]; MCF7, 48 h): 23 µM; IC50 [18]: 23 µM; IC50 ([7]; MCF7, 48 h): 23 µM; IC50 [19]: 23 µM; IC50 ([9]; A549, 48 h): 20 µM
Cc1cc(C(=O)c2ccc(Br)cc2)ccc1OCC(=O)Nc1ccccc1NC(=O)COc1c(F)cc(C(=O)c2ccc(Cl)cc2)cc1Cl	inactive	inactive	inactive	inactive	inactive	inactive	inactive	inactive	inactive	–
Cc1ccc(C(=O)c2ccc(OCC(=O)Nc3ccccc3NC(=O)COc3ccc(C(=O)c4ccc(Br)cc4)cc3C)c(C)c2)cc1	inactive	inactive	inactive	inactive	inactive	inactive	inactive	inactive	inactive	–
Cc1ccc(C(=O)c2ccc(OCC(=O)Nc3ccccc3NC(=O)COc3ccc(C(=O)c4ccccc4)cc3C)c(C)c2)cc1	inactive	inactive	inactive	inactive	inactive	inactive	inactive	inactive	inactive	–
Cc1cc(C(=O)c2ccc(Br)cc2)ccc1OCC(=O)Nc1ccccc1NC(=O)COc1cc(C)c(C(=O)c2ccccc2)cc1C	inactive	inactive	inactive	inactive	inactive	inactive	inactive	inactive	inactive	–
Cc1cc(C(=O)c2ccccc2)ccc1OCC(=O)Nc1ccccc1NC(=O)COc1ccc(C(=O)c2ccccc2C)cc1C	inactive	inactive	inactive	inactive	inactive	inactive	inactive	inactive	inactive	–
Cc1cc(C(=O)c2ccc(Br)cc2)ccc1OCC(=O)Nc1ccccc1NC(=O)COc1ccc(C(=O)c2ccc(Br)cc2)cc1C	inactive	inactive	inactive	inactive	inactive	inactive	inactive	inactive	inactive	–
O=c1[nH]cc(F)c(=O)[nH]1	inactive	inactive	inactive	inactive	inactive	inactive	inactive	inactive	inactive	–
Cc1cc(C(=O)c2ccccc2)ccc1OCC(=O)Nc1ccccc1NC(=O)COc1cc(C)c(C(=O)c2ccccc2)cc1C	inactive	inactive	inactive	inactive	inactive	inactive	inactive	inactive	inactive	–
